The values below come from patent publication US10059713B2 (Takeda Pharmaceutical Company Limited, priority 2014, dated 2018).

The structures appear in SMILES notation.

This test deals with human GPR43 (Homo sapiens (Human), UniProt O15552). Description: Ca-Flux functional assay: determination of agonist/positive allosteric modulator (PAM) activity. Format: cell-based. The settings on record: CHO-K1 Gα16 cells stably expressing human GPR43; compound added with EC20 sodium acetate; intracellular Ca2+ by FLIPR; does not distinguish agonist from PAM. How it is done: Ca-Flux Functional Assay: Determination of Agonist/Positive Allosteric Modulator (PAM) Activity
Sequence of human GPR43 (O15552 whole entry): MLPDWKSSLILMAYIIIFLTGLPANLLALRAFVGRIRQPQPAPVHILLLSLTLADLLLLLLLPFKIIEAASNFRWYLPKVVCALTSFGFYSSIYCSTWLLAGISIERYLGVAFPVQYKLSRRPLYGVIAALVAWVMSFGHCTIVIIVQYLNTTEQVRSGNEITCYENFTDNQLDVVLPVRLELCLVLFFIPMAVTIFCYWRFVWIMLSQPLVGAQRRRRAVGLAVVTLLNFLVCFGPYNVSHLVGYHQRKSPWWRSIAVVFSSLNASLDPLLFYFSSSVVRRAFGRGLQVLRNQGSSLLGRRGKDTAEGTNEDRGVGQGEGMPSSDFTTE
GPR43 agonist/PAM activity was determined by measuring changes in intracellular calcium levels using a Ca^2+ sensitive fluorescent dye. The changes in fluorescent signal were monitored by FLIPR (manufactured by Molecular Devices). GPR43 mediated increases in intracellular Ca^2+ concentration were readily detected upon activation with sodium acetate. Prior to the assay (24 hours), CHO-K1 Gα16 cells stably expressing human GPR43 were-seeded in cell culture medium in black, clear-bottom 384-well plates (Corning Inc) and grown overnight at 37° C., 5% CO2. On the day of the assay, cell culture media was removed and cells were loaded with Calcium 5 Dye (Molecular Devices) diluted in HBSS containing 25 mM HEPES, 2.5 mM Probenecid, 0.1% BSA for 1 hour at 37° C., 5% CO2. 10 point half log concentration response curves of sodium acetate from 10 mM were conducted prior to the testing of compounds to calculate the sodium acetate concentration that produces 20% of the maximal response (EC20). Test compounds (at 10 point half log concentration response curves from 10 μM) were added in the presence of sodium acetate to achieve a final concentration that produces approximately 20% maximal response as calculated from the previous experiment. The changes in fluorescent signal were monitored by FLIPR upon addition of the compound/EC20 sodium acetate mix. The EC50 values were determined from ten point concentration response curves. Curves were generated using the average of two wells for each data point.
The above assay detects both GPR43 receptor agonists and positive allosteric modulators of the GPR43 receptor, without distinguishing between the two. Activity in either regard is useful in the treatment of conditions associated with GPR43 receptor activity.
In general, EC50 refers to the concentration that produces a half-maximal response. A higher EC50 goes with lower potency in that assay. `Cc1nc(N2CCO[C@H](C)[C@@H]2C)c2[nH]c(N)c(S(=O)(=O)c3ccccc3F)c2n1` (racemic) [Example 275, 4-[(RS,SR)-2,3-dimethylmorpholin-4-yl]-7-(2-fluorobenzenesulfonyl)-2-methyl-5H-pyrrolo[3,2-d]pyrimidin-6-amine] registered a 50% effective concentration (EC50) of 5 nM. On to `O=S(=O)(c1ccccc1)c1c(NC2CCC(F)(F)CC2)[nH]c2ncccc12` [Example 1, 3-(benzenesulfonyl)-N-(4,4-difluorocyclohexyl)-1H-pyrrolo[2,3-b]pyridin-2-amine], for which the response was half-maximal at 5500 nM (EC50). The figure for `Nc1[nH]c2c(C3=CCCCC3)ncnc2c1S(=O)(=O)c1ccccc1` [Example 2, 7-(benzenesulfonyl)-4-(cyclohex-1-en-1-yl)-5H-pyrrolo[3,2-d]pyrimidin-6-amine] is 21 nM; for `Nc1[nH]c2c(C3CCCCC3)ncnc2c1S(=O)(=O)c1ccccc1` [Example 3, 7-(benzenesulfonyl)-4-cyclohexyl-5H-pyrrolo[3,2-d]pyrimidin-6-amine] it is 43 nM; for `COc1ccc(S(=O)(=O)c2c(N)[nH]c3c(C4=CCCCC4)ncnc23)cc1` [Example 4, 4-(cyclohex-1-en-1-yl)-7-[(4-methoxybenzene)sulfonyl]-5H-pyrrolo[3,2-d]pyrimidin-6-amine] it is 25 nM. Molecule `COc1ccc(S(=O)(=O)c2c(N)[nH]c3c(C4CCCCC4)ncnc23)cc1` [Example 5, 4-cyclohexyl-7-[(4-methoxybenzene)sulfonyl]-5H-pyrrolo[3,2-d]pyrimidin-6-amine] yielded a 50% effective concentration (EC50) of 80 nM. With `Nc1[nH]c2c(N3CCOCC3)ncnc2c1S(=O)(=O)c1ccccc1` [Example 6, 7-(benzenesulfonyl)-4-(morpholin-4-yl)-5H-pyrrolo[3,2-d]pyrimidin-6-amine], the EC50 stood at 273 nM. For `Nc1[nH]c2c(N3CCCCC3)ncnc2c1S(=O)(=O)c1ccccc1` [Example 7, 7-(benzenesulfonyl)-4-(piperidin-1-yl)-5H-pyrrolo[3,2-d]pyrimidin-6-amine], a half-maximal response (EC50) required 47 nM. With `Cc1nc(N2CCOC(C)(C)C2C)c2[nH]c(N)c(S(=O)(=O)c3ccccc3F)c2n1` (centres unmarked) [Example 8, 7-(2-fluorobenzenesulfonyl)-2-methyl-4-(2,2,3-trimethylmorpholin-4-yl)-5H-pyrrolo[3,2-d]pyrimidin-6-amine], the 50% effective concentration (EC50) came out at 3 nM. With `Nc1[nH]c2c(-c3ccccc3)ncnc2c1S(=O)(=O)c1ccccc1` [Example 9, 7-(benzenesulfonyl)-4-phenyl-5H-pyrrolo[3,2-d]pyrimidin-6-amine] the figure was 48 nM; with `Nc1[nH]c2cc(Cl)cnc2c1S(=O)(=O)c1ccccc1` [Example 10, 3-(benzenesulfonyl)-6-chloro-1H-pyrrolo[3,2-b]pyridin-2-amine], 626 nM. Regarding `Nc1[nH]c2c(/C=C/C3CC3)ncnc2c1S(=O)(=O)c1ccccc1` [Example 11, 7-(benzenesulfonyl)-4-[(E)-2-cyclopropylethenyl]-5H-pyrrolo[3,2-d]pyrimidin-6-amine], the half-maximal effective concentration (EC50) stood at 112 nM.

The molecule `C=C(C)c1ncnc2c(S(=O)(=O)c3ccccc3)c(N)[nH]c12` [Example 12, 7-(benzenesulfonyl)-4-(prop-1-en-2-yl)-5H-pyrrolo[3,2-d]pyrimidin-6-amine] registered an EC50 of 355 nM. The molecule `Nc1[nH]c2c(CCC3CC3)ncnc2c1S(=O)(=O)c1ccccc1` [Example 13, 7-(benzenesulfonyl)-4-(2-cyclopropylethyl)-5H-pyrrolo[3,2-d]pyrimidin-6-amine] displayed an EC50 of 267 nM.

In turn, `COc1ccc(N(C)S(=O)(=O)c2c(N)[nH]c3c(C4=CCCCC4)ncnc23)cc1` [Example 14, 6-amino-4-(cyclohex-1-en-1-yl)-N-(4-methoxyphenyl)-N-methyl-5H-pyrrolo[3,2-d]pyrimidine-7-sulfonamide] gave an EC50 of 2580 nM.

In turn, `CC(C)c1ncnc2c(S(=O)(=O)c3ccccc3)c(N)[nH]c12` [Example 15, 7-(benzenesulfonyl)-4-(propan-2-yl)-5H-pyrrolo[3,2-d]pyrimidin-6-amine] registered an EC50 of 1060 nM. `Nc1[nH]c2c(C3=CCCCC3)cncc2c1S(=O)(=O)c1ccccc1` [Example 16, 3-(benzenesulfonyl)-7-(cyclohex-1-en-1-yl)-1H-pyrrolo[3,2-c]pyridin-2-amine] registered a 50% effective concentration (EC50) of 21 nM. In turn, `COC(=O)Nc1[nH]c2c(C3=CCCCC3)ncnc2c1S(=O)(=O)c1ccccc1` [Example 17, Methyl-N-[7-(benzenesulfonyl)-4-(cyclohex-1-en-1-yl)-5H-pyrrolo[3,2-d]pyrimidin-6-yl]carbamate] registered a half-maximal effective concentration (EC50) of 5090 nM.

In the case of `Nc1[nH]c2c(C3=CCCCC3)nccc2c1S(=O)(=O)c1ccccc1` [Example 18, 3-(benzenesulfonyl)-7-(cyclohex-1-en-1-yl)-1H-pyrrolo[2,3-c]pyridin-2-amine], the 50% effective concentration (EC50) is 528 nM. `Cc1nc(C2=CCCCC2)c2[nH]c(N)c(S(=O)(=O)c3ccccc3)c2n1` [Example 19, 7-(benzenesulfonyl)-4-(cyclohex-1-en-1-yl)-2-methyl-5H-pyrrolo[3,2-d]pyrimidin-6-amine]: the EC50 stood at 28 nM.

With `Nc1[nH]c2c(C3=CCCCC3)ncnc2c1S(=O)(=O)c1ccccn1` [Example 20, 4-(cyclohex-1-en-1-yl)-7-(pyridine-2-sulfonyl)-5H-pyrrolo[3,2-d]pyrimidin-6-amine], the EC50 turned out to be 317 nM.

As for `Nc1[nH]c2c(C3=CCCCC3)ncnc2c1S(=O)(=O)c1ccc(Cl)cc1` [Example 21, 7-[(4-chlorobenzene)sulfonyl]-4-(cyclohex-1-en-1-yl)-5H-pyrrolo[3,2-d]pyrimidin-6-amine], the concentration giving a half-maximal response (EC50) came to 54 nM. `Nc1[nH]c2c(C3=CCCC3)ncnc2c1S(=O)(=O)c1ccccc1` [Example 22, 7-(benzenesulfonyl)-4-(cyclopent-1-en-1-yl)-5H-pyrrolo[3,2-d]pyrimidin-6-amine] came in with a 50% effective concentration (EC50) of 73 nM.

Consider `Nc1[nH]c2c(C3CCCC3)ncnc2c1S(=O)(=O)c1ccccc1` [Example 23, 7-(benzenesulfonyl)-4-cyclopentyl-5H-pyrrolo[3,2-d]pyrimidin-6-amine], for which the midpoint of the response, the EC50, lay at 97 nM. In the case of `Nc1[nH]c2c(N3CCC(F)(F)CC3)ncnc2c1S(=O)(=O)c1ccccc1` [Example 24, 7-(benzenesulfonyl)-4-(4,4-difluoropiperidin-1-yl)-5H-pyrrolo[3,2-d]pyrimidin-6-amine], the response was half-maximal at 19 nM (EC50).

Consider `Nc1[nH]c2cc(C3=CCCCC3)cnc2c1S(=O)(=O)c1ccccc1` [Example 25, 3-(benzenesulfonyl)-6-(cyclohex-1-en-1-yl)-1H-pyrrolo[3,2-b]pyridin-2-amine], for which the EC50 came out at 288 nM. In turn, `Nc1[nH]c2c(C3=CCCCC3)ncnc2c1S(=O)(=O)c1ccc(F)cc1` [Example 26, 4-(cyclohex-1-en-1-yl)-7-[(4-fluorobenzene)sulfonyl]-5H-pyrrolo[3,2-d]pyrimidin-6-amine] gave an EC50 of 46 nM.

Molecule `Nc1[nH]c2c(C3CCCCC3)ncnc2c1S(=O)(=O)c1ccc(F)cc1` [Example 27, 4-cyclohexyl-7-[(4-fluorobenzene)sulfonyl]-5H-pyrrolo[3,2-d]pyrimidin-6-amine] registered a half-maximal effective concentration (EC50) of 89 nM. The figure for `COC1CCN(c2ncnc3c(S(=O)(=O)c4ccccc4)c(N)[nH]c23)CC1` [Example 28, 7-(benzenesulfonyl)-4-(4-methoxypiperidin-1-yl)-5H-pyrrolo[3,2-d]pyrimidin-6-amine] is 647 nM.
